Converted amounts (≈) assume the structure as drawn.

Holding throughout (assay type): cell-based, Streptococcus pneumoniae
For assay [1], the system named is S. pneumoniae strain TIGR4 (T4). In words: Determination of relative minimal inhibitory concentration (MIC). Particulars: lowest concentration that abolishes bacterial growth, 16 hours, 37° C.; for MIC: Streptococcus pneumoniae, read-out: 1x MIC for T4. Here is the method: (§1) Each concentration was tested in triplicate. Growth was monitored on a Tecan Infinite 200 PRO plate reader at 37° C. for 16 hours. MIC is determined as the lowest concentration that abolishes bacterial growth (FIGS. 6A-6H).

In assay [2] the test system is S. pneumoniae T4. In words: Fitness outcome under antibiotic exposure (growth curve assay). Particulars: for Fitness: S. pneumoniae T4 wild-type, 1xMIC antibiotic, growth curves; for Survive (real survival outcome): strain T4, Adapted FALSE. On the procedure:
(§2) To test whether a gene-panel model can be trained that predicts fitness for many different conditions, a large RNA-Seq dataset was generated for the human pathogen Streptococcus pneumoniae. […] These include cell wall synthesis inhibitors (CWSI), DNA synthesis inhibitors (DSI), protein synthesis inhibitors (PSI) and RNA synthesis inhibitors ((RSI); FIG. 1A, Tables 1 & 2). Each strain was exposed to each antibiotic for 2 to 4 hours and cells were harvested for RNA-Seq at various time points. As T4 and 19F are susceptible to most antibiotics used, the transcriptional profiles in the presence of antibiotics mostly represent cases of low fitness (FIG. 1A, sensitive strain, 1xMICWT). In order to find patterns that differentiate fitness outcomes, adapted strains were generated with increased fitness in the presence of antibiotics by serial passaging wildtype T4 and 19F in the presence of increasing amounts of antibiotics. Four independent adapted populations for each strain were selected on individual antibiotics. These adapted strains could grow in the presence of antibiotic at 1.5xMIC of the wildtype strain, albeit with a small growth defect (FIGS. 6A-6E & 6F). In parallel, RNA-Seq was performed on S. pneumoniae strains D39 and T4 in a chemically defined medium, and media from which either uracil, Glycine or L-Valine was removed, which are essential for D39 but not T4. This enabled the potential identification of a common stress signature that is shared between antibiotic exposure and nutrient deprivation, and across multiple strains. Lastly, D39 was adapted to grow in the absence of each individual nutrient, after which RNA-Seq was repeated for adapted clones (Table 1 lists all 24 strains, 67 populations and 267 RNA-Seq experiments).
(§3) S. pneumoniae strain TIGR4 (T4; NC_003028.3) is a serotype 4 strain originally isolated from a patient^3,4, Taiwan-19F (19F; NC_012469.1) is a multi-drug resistant strain^5,6 and D39 (NC_008533) is a commonly used serotype 2 strain originally isolated from a patient about 90 years ago^7. Strain PG1 and PG19 were isolated from adults with pneumococcal bacteremia infection and included in the Pneumococcal Bacteremia Collection Nijmegen (PBCN)^8. All S. pneumoniae gene numbers refer to the T4 genome. Correspondence between homologous genes among S. pneumoniae strains and gene function annotations are described herewith. Escherichia coli strain AR538, Klebsiella pneumoniae strain AR497 and Salmonella enterica subsp Typhimurium strain AR635 were clinical isolates obtained from the Center of Disease Control (CDC). Staphylococcus aureus strain MN6 was kindly provided by George Sakoulas (Center of Immunity, Infection & Inflammation, UCSD School of Medicine). Unless otherwise specified, S. pneumoniae strains were cultivated in Todd Hewitt medium with 5% yeast extract (THY) with 5 μL/mL oxyrase (Oxyrase, Inc) or on sheep's blood agar plates (Northeastern Laboratories) at 37° C. with 5% CO2. A. baumannii, E. coll. K. pneumoniae, S. aureus and S. Typhimurium were cultured in Mueller Hinton broth II (Sigma) at 37° C. with 220 rpm constant shaking. Tn-Seq and RNA-Seq experiments of S. pneumoniae under nutrient-depletion and antibiotic conditions were performed in chemically defined medium (CDM)^9 and semi-defined minimal medium (SDMM)^10, respectively. RNA-Seq experiments for A. baumannii, S. Typhimurium, E. coll. K. pneumoniae, and S. aureus were performed in Mueller Hinton broth II. Single strain growth assays were performed at least three times using 96-well plates by taking OD600 measurements on a Tecan Infinite 200 PRO plate reader.

The test system of assay [3] is S. pneumoniae strain Taiwan-19F (19F). In words: Determination of relative minimal inhibitory concentration (MIC). The following applies: for MIC: Streptococcus pneumoniae, 16 h, read-out: 1x MIC for 19F. Here is the method: as §1
The test system of assay [4] is S. pneumoniae 19F. In words: Fitness outcome under antibiotic exposure (growth curve assay). Particulars: for Fitness: S. pneumoniae 19F wild-type, growth curves; for Survive (real survival outcome): strain 19F, Adapted FALSE. On the procedure:
as §2, §3

Assay [5] relates to S. pneumoniae strain D39. In words: Real survival outcome (fitness outcome) under nutrient condition. Particulars: strain D39, Adapted FALSE, Concentration NA.
Assay [6] has as its system adapted S. pneumoniae strain D39. In words: Real survival outcome (fitness outcome) under nutrient condition, adapted strain. Particulars: strain D39, Adapted TRUE, Concentration NA.
The test system of assay [7] is antibiotic-adapted S. pneumoniae 19F (a19F). In words: Fitness outcome under antibiotic exposure (growth curve assay). Particulars: for Fitness: a19F, 19F adapted to the respective antibiotic, 1xMIC and 1.5-2xMIC, growth curves; for Survive (real survival outcome): strain 19F, Adapted TRUE. Here is the method: as §2, §3
(§4) D39 was used as the parental strain in nutrient-depletion evolution experiments; T4 and 19F were used as parental strains in antibiotic evolution experiments. […] Four replicate populations were serial passaged in CDM or SDMM as controls to identify background adaptations in nutrient or antibiotic adaptation experiments, respectively. […]

Assay [8] has as its system antibiotic-adapted S. pneumoniae T4 (aT4). The assay is described as above. Particulars: for Survive (real survival outcome): strain T4, Adapted TRUE. On the procedure:
as §2, §3, §4

As to `CC1(C)S[C@@H]2[C@H](NC(=O)[C@H](N)c3ccc(O)cc3)C(=O)N2[C@H]1C(=O)O` [Amoxicillin, amoxicillin], in assay [1], the minimal inhibitory concentration (MIC) is 0.12 µg/mL (≈ 0.328 µM). Also, in assay [2], the Fitness result was “Low”. Also, the “Survive (real survival outcome)” value in assay [2] (Concentration NA) was “FALSE”.

As for `CO/N=C(\C(=O)N[C@@H]1C(=O)N2C(C(=O)[O-])=C(C[N+]3(C)CCCC3)CS[C@H]12)c1csc(N)n1` [Cefepime, cefepime], the values for the MIC in assay [1] and in assay [3] were 0.8 µg/mL (≈ 1.66 µM) and 2.2 µg/mL (≈ 4.58 µM), respectively. The Fitness result in assay [4] was “Low, and High”; in assay [2], “Low”. The “Survive (real survival outcome)” value in assay [4] (Concentration H (high)) is reported as “FALSE”; in assay [4] (Concentration L (low)), “TRUE”; in assay [2] (Concentration L (low)), “FALSE”.

With `CO/N=C(\C(=O)N[C@@H]1C(=O)N2C(C(=O)O)=C(CSc3nc(=O)c(=O)[nH]n3C)CS[C@H]12)c1csc(N)n1` [Ceftriaxone, ceftriaxone], in assay [1], the minimum inhibitory concentration (MIC) was found to be 0.007 µg/mL (≈ 0.0126 µM). The Fitness entry in assay [2] was “Low”. In addition, the “Survive (real survival outcome)” value in assay [2] (Concentration NA) is listed as “FALSE”.

As to `CCCCCCCCCC(=O)N[C@@H](Cc1c[nH]c2ccccc12)C(=O)N[C@H](CC(N)=O)C(=O)N[C@@H](CC(=O)O)C(=O)N[C@@H]1C(=O)NCC(=O)N[C@@H](CCCN)C(=O)N[C@@H](CC(=O)O)C(=O)N[C@H](C)C(=O)N[C@@H](CC(=O)O)C(=O)NCC(=O)N[C@H](CO)C(=O)N[C@@H]([C@H](C)CC(=O)O)C(=O)N[C@@H](CC(=O)c2ccccc2N)C(=O)O[C@@H]1C` [Daptomycin, daptomycin], the MIC in assay [1] and in assay [3] was 35 µg/mL (≈ 21.6 µM) throughout. The Fitness entry in assay [4] and in assay [2] was “Low” each time. Besides, the “Survive (real survival outcome)” value in assay [4] (Concentration L (low)) and in assay [2] (Concentration L (low)) was “FALSE” in each case.

In the case of `NCC(=O)O` [GLY], the “Survive (real survival outcome)” value in assay [2] (Concentration NA) is “TRUE”; in assay [5], “FALSE”.

In the case of `C[C@@H](O)[C@H]1C(=O)N2C(C(=O)O)=C(SCCN=CN)C[C@H]12` [Imipenem, imipenem], the MIC in assay [1] was determined as 0.03 µg/mL (≈ 0.1 µM).

Turning to `NC[C@H]1O[C@H](O[C@H]2[C@H](O)[C@@H](O[C@H]3O[C@H](CO)[C@@H](O)[C@H](N)[C@H]3O)[C@H](N)C[C@@H]2N)[C@H](O)[C@@H](O)[C@@H]1O` [Kanamycin, kanamycin], the MIC in assay [1] and in assay [3] was 90 µg/mL (≈ 186 µM) in each case.

With `C[C@H]1COc2c(N3CCN(C)CC3)c(F)cc3c(=O)c(C(=O)O)cn1c23` [Levofloxacin, levofloxacin], the MIC was 1 µg/mL (≈ 2.77 µM) in assay [1] and 1.1 µg/mL (≈ 3.04 µM) in assay [3].

Turning to `CC(=O)NC[C@H]1CN(c2ccc(N3CCOCC3)c(F)c2)C(=O)O1` [Linezolid, linezolid], the MIC in assay [1] came out at 0.5 µg/mL (≈ 1.48 µM). Also, the Fitness entry in assay [2] was “Low”. Further, the “Survive (real survival outcome)” value in assay [2] (Concentration NA) is recorded as “FALSE”.

In the case of `COc1c(N2C[C@@H]3CCCN[C@@H]3C2)c(F)cc2c(=O)c(C(=O)O)cn(C3CC3)c12` [Moxifloxacin, moxifloxacin], the MIC in assay [1] was 0.45 µg/mL (≈ 1.12 µM).

Turning to `CO[C@H]1/C=C/O[C@@]2(C)Oc3c(C)c(O)c4c(O)c(c(/C=N/N5CCN(C)CC5)c(O)c4c3C2=O)NC(=O)/C(C)=C\C=C\[C@H](C)[C@H](O)[C@@H](C)[C@@H](O)[C@@H](C)[C@H](OC(C)=O)[C@@H]1C` [Rifampicin, rifampicin], the MIC in assay [1] and in assay [3] was 0.035 µg/mL (≈ 0.0425 µM) in each case.

For the compound `CN(C)[C@@H]1C(O)=C(C(N)=O)C(=O)[C@@]2(O)C(O)=C3C(=O)c4c(O)cccc4[C@@](C)(O)[C@H]3C[C@@H]12` [Tetracycline, tetracycline], the minimal inhibitory concentration (MIC) came to 8 µg/mL (≈ 18 µM) in assay [1] and 22 µg/mL (≈ 49.5 µM) in assay [3].

As to `NC[C@H]1O[C@H](O[C@H]2[C@H](O)[C@@H](O[C@H]3O[C@H](CO)[C@@H](O)[C@H](N)[C@H]3O)[C@H](N)C[C@@H]2N)[C@H](N)C[C@@H]1O` [Tobramycin, tobramycin], the MIC in assay [1] was 175 µg/mL (≈ 374 µM). Further, the Fitness entry in assay [2] was “Low”. In addition, the “Survive (real survival outcome)” value in assay [2] (Concentration NA) is reported as “FALSE”.

Regarding `O=c1cc[nH]c(=O)[nH]1` [URA], the results for the “Survive (real survival outcome)” value in assay [2] (Concentration NA), in assay [5] and in assay [6] were “TRUE”, “FALSE” and “TRUE”, respectively.

Consider `CC(C)[C@H](N)C(=O)O` [VAL], for which the “Survive (real survival outcome)” value in assay [2] (Concentration NA) is “TRUE”; in assay [5] it was “FALSE”; in assay [6], “TRUE”.

`CN[C@H](CC(C)C)C(=O)N[C@H]1C(=O)N[C@@H](CC(N)=O)C(=O)N[C@H]2C(=O)N[C@H]3C(=O)N[C@H](C(=O)N[C@H](C(=O)O)c4cc(O)cc(O)c4-c4cc3ccc4O)[C@H](O)c3ccc(c(Cl)c3)Oc3cc2cc(c3O[C@@H]2O[C@H](CO)[C@@H](O)[C@H](O)[C@H]2O[C@H]2C[C@](C)(N)[C@H](O)[C@H](C)O2)Oc2ccc(cc2Cl)[C@H]1O` [Vancomycin, vancomycin]: the minimal inhibitory concentration (MIC) in assay [1] and in assay [3] was 0.24 µg/mL (≈ 0.166 µM) in each case. Also, the Fitness result was “Low” in assay [4]; “Low” in assay [2]; “High” in assay [7]; “High” in assay [8] (aT4, T4 adapted to the respective antibiotic, 1xMIC and 1.5-2xMIC, growth curves). In addition, the “Survive (real survival outcome)” value in assay [4] (Concentration L (low)) was “FALSE”; in assay [2] (Concentration L (low)) it was “FALSE”; in assay [7] (Concentration H (high)), “TRUE”; in assay [7] (Concentration L (low)), “TRUE”; in assay [8] (Concentration H (high)), “TRUE”; in assay [8] (Concentration L (low)), “TRUE”.

On to cotrimoxazole, for which, in assay [1], the “1x MIC for T4” value was 6.5 µg/mL. In addition, in assay [2], the Fitness entry is “Low”. The “Survive (real survival outcome)” value in assay [2] (Concentration NA) is “FALSE”.

As for penicillin, in assay [1], the “1x MIC for T4” value came out at 0.03 µg/mL. Further, the “1x MIC for 19F” value in assay [3] (S. pneumoniae 19F, lowest concentration that abolishes bacterial growth, 16 hours, 37° C.) amounted to 2.25 µg/mL. Besides, the Fitness result in assay [4] is reported as “High”; in assay [2], “Low”; in assay [7], “High”. The “Survive (real survival outcome)” value in assay [4] (Concentration L (low)) is given as “TRUE”; in assay [2] (Concentration L (low)) it was “FALSE”; in assay [8] (Concentration H (high)), “TRUE”; in assay [8] (Concentration L (low)), “TRUE”.

The MIC is the smallest concentration in the dilution series that meets the test's criterion for growth inhibition.

For the origin of these results see US11591634B1, “Forecasting bacterial survival-success and adaptive evolution through multiomics stress-response mapping and machine learning” (priority 2019, dated 2023).
